Experimental data taken from patent US5905068A, “Retroviral protease inhibiting compounds” (Abbott Laboratories, priority 1996, dated 1999).

How the values were obtained:
HIVIIIB = assay: Antiviral Activity: anti-HIV activity in MT4 cells infected with HIVIIIB (MTT); format: cell-based; conditions: MOI 0.003, 5 days, n=four duplicate determinations
Outline: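 MT4 cells infected 1 h with HIVIIIB at 0.003 MOI, washed, seeded at 1×10^4 cells/well with half-log compound dilutions in RPMI 1640 plus 10% FBS and added human serum (final 60%, 35% or 22.5% total serum), 5 days at 37 °C. Viability read by MTT at 570/650 nm; EC50 by median effect equation, CTC50 on uninfected MT4 cells.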

uninfected MT4 cells = assay: Cytotoxicity in uninfected MT4 cells (MTT); format: cell-based; conditions: 5 days, n=four duplicate determinations, read-out: CTC50 (50% cytotoxicity concentration)
Outline: (§1)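 Uninfected MT4 cells, 1×10^4 per well, incubated 5 days at 37 °C with half-log compound dilutions. Viability read by MTT-type OD at 570/650 nm after SDS/HCl lysis overnight. CTC50 taken as 50% cytotoxicity concentration.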

HIV-1 protease = HIV-1 protease (Human immunodeficiency virus type 1 group M subtype B, UniProt P04585); assay: Fluorogenic Assay for Screening Inhibitors of HIV Protease
[1] = Cytotoxicity in uninfected MT4 cells (MTT); format: cell-based; conditions: human, 5 days, n=four duplicate determinations, read-out: CTC50 (50% cytotoxicity concentration)
Outline: as §1

[2] = Effect of ritonavir on pharmacokinetics of the co-administered compound of this invention; format: in vivo; conditions: ritonavir in combination with a compound of this invention
[3] = Human immunodeficiency virus 1, 120 h

EC50 (HIVIIIB; [3])	inhibition at 0.0005 µM (HIV-1 protease; pH 4.5)	SMILES	CC50 at 120 h [1]	also measured
		Cc1ccc(OCC(=O)N[C@@H](Cc2ccccc2)C[C@H](O)[C@H](Cc2ccccc2)NC(=O)O[C@H]2CO[C@H]3OCC[C@H]32)c(C)n1 [Example 10, (2S,3S,5S)-5-(2,6-Dimethyl-pyridin-3-yl-oxyacetyl)amino-2-((3R,3aS,6aR)-bis-tetrahydrofuran-3-yl-oxycarbonyl)amino-1,6-diphenyl-3-hydroxyhexane]		EC50 (HIVIIIB): 184 nM; CC50 (uninfected MT4 cells): > 100000 nM; % Inhibition (HIV-1 protease; 0.5 nM inhibitor, pH 4.5, 30° C.): 49%
153 nM	67%	Cc1c(O)cccc1C(=O)N[C@@H](Cc1ccccc1)[C@@H](O)C[C@H](Cc1ccccc1)NC(=O)O[C@H]1CO[C@H]2OCC[C@H]21 [Example 59, (2S,3S,5S)-2-(3-Hydroxy-2-methyl-benzoyl)amino-5-((3R,3aS,6aR)-bis-tetrahydrofuran-3-yl-oxycarbonyl)amino-1,6-diphenyl-3-hydroxyhexane]	> 100000 nM	
1120 nM		Cc1c(O)cccc1C(=O)N[C@@H](Cc1ccccc1)[C@@H](O)C[C@H](Cc1ccccc1)NC(=O)O[C@@H]1CO[C@@H]2OCC[C@@H]21 [Example 60, (2S,3S,5S)-2-(3-Hydroxy-2-methyl-benzoyl)amino-5-((3S,3aR,6aS)-bis-tetrahydrofuran-3-yl-oxycarbonyl)amino-1,6-diphenyl-3-hydroxyhexane]	> 100000 nM	inhibition at 0.0022 µM (HIV-1 protease; pH 4.5): 50%
81 nM	70%	Nc1ccc(Cl)c(C(=O)N[C@@H](Cc2ccccc2)[C@@H](O)C[C@H](Cc2ccccc2)NC(=O)O[C@H]2CO[C@H]3OCC[C@H]32)c1 [Example 62, (2S,3S,5S)-2-(3-Amino-6-chloro-benzoyl)amino-5-((3R,3aS,6aR)-bis-tetrahydrofuran-3-yl-oxycarbonyl)amino-1,6-diphenyl-3-hydroxyhexane]	> 100000 nM	
1560 nM		Nc1ccc(Cl)c(C(=O)N[C@@H](Cc2ccccc2)[C@@H](O)C[C@H](Cc2ccccc2)NC(=O)O[C@@H]2CO[C@@H]3OCC[C@@H]32)c1 [Example 63, (2S,3S,5S)-2-(3-Amino-6-chloro-benzoyl)amino-5-((3S,3aR,6aS)-bis-tetrahydrofuran-3-yl-oxycarbonyl)amino-1,6-diphenyl-3-hydroxyhexane]	> 100000 nM	inhibition at 0.0029 µM (HIV-1 protease; pH 4.5): 50%
200 nM	64%	O=C(N[C@@H](Cc1ccccc1)C[C@H](O)[C@H](Cc1ccccc1)NC(=O)c1ccc(O)cc1)O[C@H]1CO[C@H]2OCC[C@H]21 [Example 64, (2S,3S,5S)-2-(4-Hydroxy-benzoyl)amino-5-((3R,3aS,6aR)-bis-tetrahydrofuran-3-yl-oxycarbonyl)amino-1,6-diphenyl-3-hydroxyhexane]	> 100000 nM	
233 nM	65%	O=C(N[C@@H](Cc1ccccc1)C[C@H](O)[C@H](Cc1ccccc1)NC(=O)c1ccccc1)O[C@H]1CO[C@H]2OCC[C@H]21 [Example 68, (2S,3S,5S)-2-(Benzoyl)amino-5-((3R,3aS,6aR)-bis-tetrahydrofuran-3-yl-oxycarbonyl)amino-1,6-diphenyl-3-hydroxyhexane]	> 32000 nM	
101 nM	72%	Nc1ccc(C(=O)N[C@@H](Cc2ccccc2)[C@@H](O)C[C@H](Cc2ccccc2)NC(=O)O[C@H]2CO[C@H]3OCC[C@H]32)c(Cl)c1 [Example 71, (2S,3S,5S)-2-(4-Amino-2-chloro-benzoyl)amino-5-((3R,3aS,6aR)-bis-tetrahydrofuran-3-yl-oxycarbonyl)amino-1,6-diphenyl-3-hydroxyhexane]	> 100000 nM	
7 nM	89%	Cc1ccc(O)c(C)c1OCC(=O)N[C@@H](Cc1ccccc1)C[C@H](O)[C@H](Cc1ccccc1)NC(=O)O[C@H]1CO[C@H]2OCC[C@H]21 [Example 74, (2S,3S,5S)-5-(2,6-Dimethyl-3-hydroxy-phenoxyacetyl)amino-2-((3R,3aS,6aR)-bis-tetrahydrofuran-3-yl-oxycarbonyl)amino-1,6-diphenyl-3-hydroxyhexane]	50500 nM	
		CC(C)c1nc(CN(C)C(=O)N[C@H](C(=O)N[C@@H](Cc2ccccc2)C[C@H](O)[C@H](Cc2ccccc2)NC(=O)OCc2cncs2)C(C)C)cs1 [ritonavir]		blood levels of the co-administered compound of this invention [2]: increases blood levels; half-life of the co-administered compound of this invention [2]: increases half-life; time to peak plasma concentration of the co-administered compound of this invention [2]: increases the time to peak plasma concentration
